15 compounds from patent US7897602B2, “Indolinone compounds as kinase inhibitors” (Development Center for Biotechnology, priority 2009, dated 2011) can be followed below.

Common to all, as to type: biochemical
One assay concerns the target T1, c-Met kinase (Homo sapiens, UniProt P08581).
T1 construct: recombinant N-terminal 6×His-tagged c-Met kinase domain construct expressed from baculovirus; 6xHis (N); made in house
The assay is described as follows: c-Met kinase assay (33P incorporation into Poly(Glu-Tyr)). Conditions: 500 nM test compound. An outline of the steps: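 Recombinant N-terminal 6×His-tagged c-Met kinase domain (baculovirus-expressed, 5 ng) acted on Poly(Glu-Tyr) 4:1 with 100 μM ATP plus [33P]-γ-ATP in MOPS pH 7.0 buffer, 30 min at 30° C. Compound was at 500 nM. Filter-retained radioactivity was compared with the DMSO control to give percent inhibition.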

The target in a further assay is T2, Aurora B kinase (Homo sapiens, UniProt Q96GD4).
T2 construct: purchased Cell signaling
T2 sequence (Q96GD4 whole entry): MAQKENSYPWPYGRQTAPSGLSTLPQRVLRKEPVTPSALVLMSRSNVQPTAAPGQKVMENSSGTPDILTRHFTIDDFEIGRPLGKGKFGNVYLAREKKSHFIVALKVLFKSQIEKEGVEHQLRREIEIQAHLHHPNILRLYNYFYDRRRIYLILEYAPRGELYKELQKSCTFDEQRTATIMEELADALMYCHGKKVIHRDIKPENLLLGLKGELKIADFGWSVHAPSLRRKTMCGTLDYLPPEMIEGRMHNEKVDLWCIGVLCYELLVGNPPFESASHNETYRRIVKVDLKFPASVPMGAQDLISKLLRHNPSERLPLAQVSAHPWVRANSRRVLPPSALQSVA
The assay is described as follows: Aurora B kinase assay ([γ-33P]ATP, CHOCKtide substrate). Conditions: for inhibition at 1 µM: 1.0 μM test compound. The method in brief: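 Recombinant Aurora A (1 ng) or Aurora B (2.5 ng) incubated with test compound, CHOCKtide (1 μg) and [γ-33P]ATP/ATP at 10 μM (Aurora A) or 40 μM (Aurora B), 30 min at 33 °C. Stopped with phosphoric acid; filter-bound 33P counted; IC50 = half-maximal inhibition.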

The target of a further assay is T3, VEGFR2 kinase (Homo sapiens, UniProt P35968).
T3 construct: recombinant N-terminal 6×His-tagged VEGFR2 kinase domain construct expressed by baculovirus; 6xHis (N); made in house
T3 sequence (P35968 834-1162 limits assumed): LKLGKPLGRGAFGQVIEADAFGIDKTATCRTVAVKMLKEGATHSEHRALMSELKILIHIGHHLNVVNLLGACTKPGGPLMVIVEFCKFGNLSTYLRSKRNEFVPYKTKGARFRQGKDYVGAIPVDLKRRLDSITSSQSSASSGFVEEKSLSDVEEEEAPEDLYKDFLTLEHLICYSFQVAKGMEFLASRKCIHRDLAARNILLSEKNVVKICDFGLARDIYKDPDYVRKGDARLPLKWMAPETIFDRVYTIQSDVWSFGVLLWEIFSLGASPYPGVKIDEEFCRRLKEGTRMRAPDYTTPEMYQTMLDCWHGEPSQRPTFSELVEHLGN
Kind of assay: VEGFR2 kinase assay (33P incorporation into Poly(Glu-Tyr)). The conditions noted are these: 500 nM test compound; read-out: Inhibition at 500 nM (%) VEGFr-2. The method, then:
Inhibition of VEGFR2 kinase activity by compounds disclosed herein was quantified by measuring the amount of [^33P] incorporated into the substrate in the presence of a test compound. Specifically, a reaction mixture with a final volume of 25 μL and containing 6.25 ng of VEGFR2 kinase (obtained by purifying recombinant N-terminal 6×His-tagged VEGFR2 kinase domain construct expressed by baculovirus), 5 μg of substrate (Poly (Glu-Tyr, 4:1, Sigma)), kinase reaction buffer (20 mM MOPS pH 7.0, 1 mM EDTA, 5% glycerol, 0.01% Brij-35, 0.1% β-mercaptoethanol, 1 mg/mL BSA, 100 μM ATP, 0.1 μCi per well [^33P]-γ-ATP (2,500-3,000 Ci/mmol), and 500 nM test compound (final concentration of DMSO was 4%) or 4% DMSO alone (as the control sample), was incubated at 30° C. for 30 minutes. The reaction was then stopped by adding 5 μL of 3% phosphoric acid solution. The resultant solution was transferred to and harvested by a filter plate (UniFilter-96 GF/B, PerkinElmer). The filter plate was then washed 20 times with d.d. H2O for 5 min followed by the addition of 30 μL of MicroScint™-20 Cocktail (PerkinElmer). After the plate was sealed, the retained radioactivity on the filter was counted using a TopCount scintillation detector (PerkinElmer). The percentage of inhibition rate of the test compound was calculated by dividing the retained radioactivity of the test sample with the retained radioactivity of the control sample and shown in Table 3.

The target in the next assay is T4, PDGFR-β kinase (Homo sapiens, UniProt P09619).
T4 construct: recombinant N-terminal 6×His-tagged PDGFR-β kinase domain construct expressed by baculovirus; 6xHis (N); made in house
T4 sequence (P09619 600-962 limits assumed): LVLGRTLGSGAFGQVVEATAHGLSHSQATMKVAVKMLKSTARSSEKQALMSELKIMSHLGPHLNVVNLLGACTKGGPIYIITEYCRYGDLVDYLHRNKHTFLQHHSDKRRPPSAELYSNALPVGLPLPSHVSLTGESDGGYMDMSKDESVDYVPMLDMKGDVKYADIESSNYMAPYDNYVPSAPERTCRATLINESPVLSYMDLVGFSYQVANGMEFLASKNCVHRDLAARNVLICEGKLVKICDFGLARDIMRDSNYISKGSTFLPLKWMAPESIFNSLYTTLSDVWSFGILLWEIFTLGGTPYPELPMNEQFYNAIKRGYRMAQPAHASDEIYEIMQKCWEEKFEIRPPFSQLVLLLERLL
The assay is described as follows: PDGFR-β kinase assay (33P incorporation into Poly(Glu-Tyr)). Conditions: 500 nM test compound. The method, then:
Inhibition of PDGFR-β kinase activity by compounds disclosed herein was quantified by measuring the amount of [^33P] incorporated into the substrate in the presence of a test compound. Briefly, a reaction mixture of 25 μL final volume containing 55 ng of PDGFR-β kinase (obtained by purifying recombinant N-terminal 6×His-tagged PDGFR-β kinase domain construct expressed by baculovirus), 2.5 μg of the substrate (Poly (Glu-Tyr, 4:1, Sigma)), kinase reaction buffer (20 mM MOPS pH 7.0, 1 mM EDTA, 5% glycerol, 0.01% Brij-35, 0.1% β-mercaptoethanol, 1 mg/mL BSA, 2 mM MnCl2, 30 μM ATP, 0.1 μCi per well [^33P]-γ-ATP (2,500-3,000 Ci/mmol)), and a test compound (500 nM, diluted with 4% DMSO) or DMSO (as the control) was incubated at 30° C. for 30 minutes. The reaction was stopped by adding 5 μL of 3% phosphoric acid solution. The resultant reaction solution was then harvested onto a filter plate (UniFilter-96 GF/B, PerkinElmer), washed 20 times for 5 min with d.d. H2O, and followed by the addition of 30 μL of MicroScint™-20 Cocktail (PerkinElmer). The plate was then sealed and counted using a TopCount scintillation detector (PerkinElmer). The percentage of inhibition rate of the test compound was calculated by dividing the retained radioactivity of the test sample with the retained radioactivity of the control sample and shown in Table 3.

T1 sequence (P08581 1078-1345 limits assumed): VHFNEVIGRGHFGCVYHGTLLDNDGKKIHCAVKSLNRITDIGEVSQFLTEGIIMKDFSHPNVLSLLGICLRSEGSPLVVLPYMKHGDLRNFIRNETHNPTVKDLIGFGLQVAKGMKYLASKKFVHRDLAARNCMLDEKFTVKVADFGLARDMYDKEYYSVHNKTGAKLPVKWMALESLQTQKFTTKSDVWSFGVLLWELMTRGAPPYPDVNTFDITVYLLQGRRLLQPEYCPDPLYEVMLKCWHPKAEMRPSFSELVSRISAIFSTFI

What is called inhibition is the change of the read-out against control, counted positive when it falls. As for `CCOC(=O)CCc1c(/C=C2\C(=O)Nc3ccc(-c4cc5ccccc5s4)cc32)[nH]c2c1C(=O)CCC2` [DCB-70069, (Z)-5-(benzo[b]thiophen-2-yl)-3-((3-(3-ethoxy-3-oxopropyl)-4-oxo-4,5,6,7-tetrahydro-1H-indol-2-yl)methylene)indolin-2-one], the inhibition at 0.5 µM is -38% against c-Met kinase, 11.4% on VEGFR2 kinase and 6.8% on PDGFR-β kinase. Besides, the inhibition at 1 µM against Aurora B kinase was -2.6%.

For `O=C(O)CCc1c(/C=C2\C(=O)Nc3ccc(-c4cc5ccccc5s4)cc32)[nH]c2c1C(=O)CCC2` [DCB-70070, (Z)-5-(benzo[b]thiophen-2-yl)-3-((3-carboxyethyl-4-oxo-4,5,6,7-tetrahydro-1H-indol-2-yl)methylene)indolin-2-one], the inhibition at 0.5 µM turned out to be 19.7% against c-Met kinase, 45.5% at VEGFR2 kinase and 18.7% against PDGFR-β kinase. Moreover, on Aurora B kinase, the inhibition at 1 µM is -2.7%.

`O=C(O)CCc1c(/C=C2\C(=O)Nc3ccc(S(=O)(=O)Cc4ccccc4)cc32)[nH]c2c1C(=O)CCC2` [DCB-70071, (Z)-5-benzylsulfonyl-3-((3-carboxyethyl-4-oxo-4,5,6,7-tetrahydro-1H-indol-2-yl)methylene)indolin-2-one]: the inhibition at 0.5 µM stood at 65.3% on c-Met kinase, 91.8% on VEGFR2 kinase and 43.1% against PDGFR-β kinase. Moreover, the inhibition at 1 µM at Aurora B kinase amounted to 11.2%.

For the compound `O=C(O)CCc1c(/C=C2\C(=O)Nc3ccc(S(=O)(=O)Cc4ccc(F)cc4)cc32)[nH]c2c1C(=O)CCC2` [DCB-70072, (Z)-5-(4-fluorobenzylsulfonyl)-3-((3-carboxyethyl-4-oxo-4,5,6,7-tetrahydro-1H-indol-2-yl)methylene)indolin-2-one], the inhibition at 0.5 µM against c-Met kinase stood at 62.8%; at VEGFR2 kinase, 86%; against PDGFR-β kinase, 34.5%. Further, at Aurora B kinase, the inhibition at 1 µM is 15.5%.

As to `O=C(O)CCc1c(/C=C2\C(=O)Nc3ccc(S(=O)(=O)Cc4c(Cl)cccc4Cl)cc32)[nH]c2c1C(=O)CCC2` [DCB-70073, (Z)-5-(2,6-dichlorobenzylsulfonyl)-3-((3-carboxyethyl-4-oxo-4,5,6,7-tetrahydro-1H-indol-2-yl)methylene)indolin-2-one], the inhibition at 0.5 µM stood at 91.6% against c-Met kinase, 71.3% on VEGFR2 kinase and 29.3% on PDGFR-β kinase. For the same compound, the inhibition at 1 µM on Aurora B kinase came out at 9.4%.

On to `CCOC(=O)CCc1c(/C=C2\C(=O)Nc3ccc(NC(=O)c4ccc(F)cc4)cc32)[nH]c2c1C(=O)CCC2` [DCB-70074, (Z)-5-(4-fluorobenzamido)-3-((3-(3-ethoxy-3-oxopropyl)-4-oxo-4,5,6,7-tetrahydro-1H-indol-2-yl)methylene)indolin-2-one], for which the inhibition at 0.5 µM against c-Met kinase came out at 21.5%; at VEGFR2 kinase, 25%; at PDGFR-β kinase, 6.6%. The inhibition at 1 µM at Aurora B kinase is 15.1%.

The IC50 is the concentration that gives 50% inhibition. On to `O=C(O)CCc1c(/C=C2\C(=O)Nc3cc(-c4ccc(O)cc4)ccc32)[nH]c2c1C(=O)CCC2` [DCB-70075, (Z)-6-(4-hydroxyphenyl)-3-((3-carboxyethyl-4-oxo-4,5,6,7-tetrahydro-1H-indol-2-yl)methylene)indolin-2-one], for which the values for the inhibition at 0.5 µM on c-Met kinase, on VEGFR2 kinase and against PDGFR-β kinase were 21.8%, 99.6% and 94.1%, respectively. Further, on Aurora B kinase, the 50% inhibitory concentration (IC50) was determined as 456 nM. In addition, at Aurora B kinase, the inhibition at 1 µM came out at 55.8%.

Regarding `O=C(O)CCc1c(/C=C2\C(=O)Nc3ccc(NC(=O)c4ccc(F)cc4)cc32)[nH]c2c1C(=O)CCC2` [DCB-70076, (Z)-5-(4-fluorobenzamido)-3-((3-carboxyethyl-4-oxo-4,5,6,7-tetrahydro-1H-indol-2-yl)methylene)indolin-2-one], the inhibition at 0.5 µM against c-Met kinase was 21.8%; at VEGFR2 kinase, 59.8%; on PDGFR-β kinase it was 26.9%. At Aurora B kinase, the inhibition at 1 µM was determined as 7.4%.

Take `CCOC(=O)CCc1c(/C=C2\C(=O)Nc3cc(-c4ccc(O)c(O)c4)ccc32)[nH]c2c1C(=O)CCC2` [DCB-70077, (Z)-6-(3,4-dihydroxyphenyl)-3-((3-(3-ethoxy-3-oxopropyl)-4-oxo-4,5,6,7-tetrahydro-1H-indol-2-yl)methylene)indolin-2-one]: the inhibition at 0.5 µM against c-Met kinase was determined as 4.1%; at VEGFR2 kinase, 89.7%; at PDGFR-β kinase it was 66.3%. Further, on Aurora B kinase, the inhibition at 1 µM was found to be 47.5%.

With `O=C(O)CCc1c(/C=C2\C(=O)Nc3cc(-c4ccc(O)c(O)c4)ccc32)[nH]c2c1C(=O)CCC2` [DCB-70078, (Z)-6-(3,4-dihydroxyphenyl)-3-((3-carboxyethyl-4-oxo-4,5,6,7-tetrahydro-1H-indol-2-yl)methylene)indolin-2-one], the inhibition at 0.5 µM is -54.1% against c-Met kinase, 98.9% at VEGFR2 kinase and 85% at PDGFR-β kinase. The concentration for half-maximal inhibition (IC50) against Aurora B kinase was determined as 438 nM. Also, the inhibition at 1 µM at Aurora B kinase was 63.4%.

Turning to `CCOC(=O)CCc1c(/C=C2\C(=O)Nc3cc(-c4cc5ccccc5s4)ccc32)[nH]c2c1C(=O)CCC2` [DCB-70079, (Z)-6-(benzo[b]thiophen-2-yl)-3-((3-(3-ethoxy-3-oxopropyl)-4-oxo-4,5,6,7-tetrahydro-1H-indol-2-yl)methylene)indolin-2-one], the inhibition at 0.5 µM turned out to be 21.4% on c-Met kinase, 15.6% at VEGFR2 kinase and 9.6% against PDGFR-β kinase. The inhibition at 1 µM on Aurora B kinase came out at 16%.

With `O=C(O)CCc1c(/C=C2\C(=O)Nc3cc(-c4cc5ccccc5s4)ccc32)[nH]c2c1C(=O)CCC2` [DCB-70080, (Z)-6-(benzo[b]thiophen-2-yl)-3-((3-carboxyethyl-4-oxo-4,5,6,7-tetrahydro-1H-indol-2-yl)methylene)indolin-2-one], the inhibition at 0.5 µM is -21.3% against c-Met kinase, 76.9% on VEGFR2 kinase and 56.7% on PDGFR-β kinase. The inhibition at 1 µM at Aurora B kinase stood at 35.2%.

Regarding `CCOC(=O)CCc1c(/C=C2\C(=O)Nc3cc(-c4ccc(O)c(OC)c4)ccc32)[nH]c2c1C(=O)CCC2` [DCB-70081, (Z)-6-(4-hydroxy-3-methoxyphenyl)-3-((3-(3-ethoxy-3-oxopropyl)-4-oxo-4,5,6,7-tetrahydro-1H-indol-2-yl)methylene)indolin-2-one], the inhibition at 0.5 µM was found to be 25.6% on c-Met kinase, 80% on VEGFR2 kinase and 25.2% at PDGFR-β kinase. Besides, the inhibition at 1 µM against Aurora B kinase was 30.6%.

For `COc1cc(-c2ccc3c(c2)NC(=O)/C3=C\c2[nH]c3c(c2CCC(=O)O)C(=O)CCC3)ccc1O` [DCB-70082, (Z)-6-(4-hydroxy-3-methoxyphenyl)-3-((3-carboxyethyl-4-oxo-4,5,6,7-tetrahydro-1H-indol-2-yl)methylene)indolin-2-one], the inhibition at 0.5 µM against c-Met kinase was 27.3%; on VEGFR2 kinase, 95.8%; at PDGFR-β kinase it was 41.4%. The IC50 against Aurora B kinase amounted to 2240 nM. Also, at Aurora B kinase, the inhibition at 1 µM is 47.1%.

As for `CCOC(=O)CCc1c(C=C2C(=S)Nc3ccccc32)[nH]c2c1C(=O)CCC2` [DCB-70083, 3-((3-(3-ethoxy-3-oxopropyl)-4-oxo-4,5,6,7-tetrahydro-1H-indol-2-yl)methylene)indolin-2-thione], the inhibition at 0.5 µM came to 29.8% against c-Met kinase, 23.3% on VEGFR2 kinase and 11.6% against PDGFR-β kinase. Moreover, at Aurora B kinase, the inhibition at 1 µM was determined as 12.8%.
